{
  "source": "ChEMBL document CHEMBL3244214",
  "about": "“Molar volume relationships and the specific inhibition of a synaptosomal enzyme by psychoactive cannabinoids” (J Med Chem, 1978)",
  "key": {"[1]": {"test": "Antihemolytic potency against hypotonic lysis-induced erythrocytes (unknown origin) assessed as stabilization", "type": "functional, Erythrocyte"}, "[2]": {"test": "Molar volume, Vm of the compound at zero temperature", "type": "physicochemical"}, "[3]": {"test": "Inhibition of mouse brain synaptosomal Lysophosphatidylcholine acyltransferase using substrate [32P]lysophosphatidylcholine and oleoyl-CoA"}},
  "data": [
    {"smiles": "CCCCCCc1cc(O)c2c(c1)OC(C)(C)C1=C2CC(C)CC1", "note": "(centres undefined)", "values": [
      {"measurement": "pAH50", "setting": "[1]", "value": 4.03},
      {"measurement": "Vm", "setting": "[2]", "value": 2.828, "unit": "×10⁻⁴ m3/mol"},
      {"measurement": "pKi", "setting": "[3]", "value": 3.6}
    ]},
    {"smiles": "CCCCCCCCCCO", "note": "[DECANOL]", "values": [
      {"measurement": "pAH50", "setting": "[1]", "value": 5},
      {"measurement": "Vm", "setting": "[2]", "value": 1.576, "unit": "×10⁻⁴ m3/mol"},
      {"measurement": "pKi", "setting": "[3]", "value": 3.77}
    ]},
    {"smiles": "CC1=C(/C=C/C(C)=C/C=C/C(C)=C/CO)C(C)(C)CCC1", "note": "[RETINOL]", "values": [
      {"measurement": "pAH50", "setting": "[1]", "value": 5.49},
      {"measurement": "Vm", "setting": "[2]", "value": 2.865, "unit": "×10⁻⁴ m3/mol"},
      {"measurement": "pKi", "setting": "[3]", "value": 3.82}
    ]},
    {"smiles": "CCCCCCCCCO", "note": "[NONANOL]", "values": [
      {"measurement": "pAH50", "setting": "[1]", "value": 4.39},
      {"measurement": "pKi", "setting": "[3]", "value": 3.24}
    ]},
    {"smiles": "CCCCCc1cc(O)c2c(c1)OC(C)(C)[C@@H]1CCC(CO)=C[C@@H]21", "values": [
      {"measurement": "pAH50", "setting": "[1]", "value": 3.72},
      {"measurement": "Vm", "setting": "[2]", "value": 2.746, "unit": "×10⁻⁴ m3/mol"},
      {"measurement": "pKi", "setting": "[3]", "value": 4.07}
    ]},
    {"smiles": "CCCCCCCCO", "note": "[OCTANOL]", "values": [
      {"measurement": "pAH50", "setting": "[1]", "value": 3.63},
      {"measurement": "Vm", "setting": "[2]", "value": 1.295, "unit": "×10⁻⁴ m3/mol"},
      {"measurement": "pKi", "setting": "[3]", "value": 2.77}
    ]},
    {"smiles": "CCCCCc1cc(O)c2c(c1)OC(C)(C)c1ccc(C)cc1-2", "note": "[CANNABINOL]", "values": [
      {"measurement": "pAH50", "setting": "[1]", "value": 4.4},
      {"measurement": "Vm", "setting": "[2]", "value": 2.601, "unit": "×10⁻⁴ m3/mol"},
      {"measurement": "pKi", "setting": "[3]", "value": 3.26}
    ]},
    {"smiles": "Oc1ccc(Cl)cc1", "note": "[PARACHLOROPHENOL]", "values": [
      {"measurement": "pAH50", "setting": "[1]", "value": 3.13},
      {"measurement": "Vm", "setting": "[2]", "value": 8.975, "unit": "×10⁻⁵ m3/mol"},
      {"measurement": "pKi", "setting": "[3]", "value": 2.74}
    ]},
    {"smiles": "CCCCCc1cc(O)c(C/C=C(\\C)CCC=C(C)C)c(O)c1", "note": "[CANNABIGEROL]", "values": [
      {"measurement": "pAH50", "setting": "[1]", "value": 4.66},
      {"measurement": "Vm", "setting": "[2]", "value": 2.861, "unit": "×10⁻⁴ m3/mol"},
      {"measurement": "pKi", "setting": "[3]", "value": 3.59}
    ]},
    {"smiles": "CCCCCc1cc(O)c2c(c1)OC(C)(C)[C@@H]1CCC(C)=C[C@@H]21", "note": "[DRONABINOL]", "values": [
      {"measurement": "pAH50", "setting": "[1]", "value": 4.1},
      {"measurement": "Vm", "setting": "[2]", "value": 2.687, "unit": "×10⁻⁴ m3/mol"},
      {"measurement": "pKi", "setting": "[3]", "value": 6.52}
    ]},
    {"smiles": "CN(C)CCCN1c2ccccc2Sc2ccc(Cl)cc21", "note": "[CHLORPROMAZINE]", "values": [
      {"measurement": "pAH50", "setting": "[1]", "value": 5.09},
      {"measurement": "Vm", "setting": "[2]", "value": 2.406, "unit": "×10⁻⁴ m3/mol"},
      {"measurement": "pKi", "setting": "[3]", "value": 3.1}
    ]},
    {"smiles": "Oc1ccccc1Cl", "note": "[2-CHLOROPHENOL]", "values": [
      {"measurement": "pAH50", "setting": "[1]", "value": 2.94},
      {"measurement": "Vm", "setting": "[2]", "value": 8.975, "unit": "×10⁻⁵ m3/mol"},
      {"measurement": "pKi", "setting": "[3]", "value": 2.48}
    ]},
    {"smiles": "CC(C)[C@]12CC(=O)[C@H](C)[C@H]1C2", "values": [
      {"measurement": "pAH50", "setting": "[1]", "value": 3},
      {"measurement": "Vm", "setting": "[2]", "value": 1.132, "unit": "×10⁻⁴ m3/mol"},
      {"measurement": "pKi", "setting": "[3]", "value": 3.15}
    ]},
    {"smiles": "CCCCCCCCCCCCO", "note": "[DODECANOL]", "values": [
      {"measurement": "pAH50", "setting": "[1]", "value": 5.27},
      {"measurement": "Vm", "setting": "[2]", "value": 1.858, "unit": "×10⁻⁴ m3/mol"},
      {"measurement": "pKi", "setting": "[3]", "value": 3.39}
    ]},
    {"smiles": "CCCCCc1cc(O)c2c(c1)OC(C)(C)[C@@H]1CC=C(C)C[C@@H]21", "note": "[DELTA-8-TETRAHYDROCANNABINOL]", "values": [
      {"measurement": "pAH50", "setting": "[1]", "value": 3.85},
      {"measurement": "Vm", "setting": "[2]", "value": 2.687, "unit": "×10⁻⁴ m3/mol"},
      {"measurement": "pKi", "setting": "[3]", "value": 4.24}
    ]}
  ]
}
